Assay results taken from US20250120967A1, “TYROSINE KINASES INHIBITORS AND USES THEREOF” (GREAT NOVEL THERAPEUTICS BIOTECH & MEDICALS CORPORATION, priority 2023, published 2025).

Experiments:
Assay type in all cases: cell-based
[1] = tested on: NCI-60 human cancer cell lines; assay: NCI-60 screen (SRB), panel average; details: average over the NCI-60 cell lines of the table
Method: The human tumor cell lines of the cancer screening panel are grown in RPMI 1640 medium containing 5% fetal bovine serum and 2 mM L-glutamine. For a typical screening experiment, cells are inoculated into 96 well microtiter plates in 100 μL at plating densities ranging from 5,000 to 40,000 cells/well depending on the doubling time of individual cell lines. After cell inoculation, the microtiter plates are incubated at 37° C., 5% CO2, 95% air and 100% relative humidity for 24 h prior to addition of experimental drugs. After 24 h, two plates of each cell line are fixed in situ with TCA, to represent a measurement of the cell population for each cell line at the time of drug addition (Tz). Experimental drugs are solubilized in dimethyl sulfoxide at 400-fold the desired final maximum test concentration and stored frozen prior to use. At the time of drug addition, an aliquot of frozen concentrate is thawed and diluted to twice the desired final maximum test concentration with complete medium containing 50 µg/ml gentamicin. An additional four, 10-fold or M log serial dilutions are made to provide a total of five drug concentrations plus control. Aliquots of 100 μl of these different drug dilutions are added to the appropriate microtiter wells already containing 100 μl of medium, resulting in the required final drug concentrations. Following drug addition, the plates are incubated for an additional 48 h at 37° C., 5% CO2, 95% air, and 100% relative humidity. For adherent cells, the assay is terminated by the addition of cold TCA. Cells are fixed in situ by the gentle addition of 50 μl of cold 50% (w/v) TCA (final concentration, 10% TCA) and incubated for 60 minutes at 4° C. The supernatant is discarded, and the plates are washed five times with tap water and air dried. Sulforhodamine B (SRB) solution (100 l) at 0.4% (w/v) in 1% acetic acid is added to each well, and plates are incubated for 10 minutes at room temperature. […] Bound stain is subsequently solubilized with 10 mM trizma base, and the absorbance is read on an automated plate reader at a wavelength of 515 nm. […]

BT-549 = assay: NCI-60 screen (SRB); details: Homo sapiens; BT-549, Breast Cancer
Method: (§1) The human tumor cell lines of the cancer screening panel are grown in RPMI 1640 medium containing 5% fetal bovine serum and 2 mM L-glutamine. For a typical screening experiment, cells are inoculated into 96 well microtiter plates in 100 μL at plating densities ranging from 5,000 to 40,000 cells/well depending on the doubling time of individual cell lines. After cell inoculation, the microtiter plates are incubated at 37° C., 5% CO2, 95% air and 100% relative humidity for 24 h prior to addition of experimental drugs. After 24 h, two plates of each cell line are fixed in situ with TCA, to represent a measurement of the cell population for each cell line at the time of drug addition (Tz). Experimental drugs are solubilized in dimethyl sulfoxide at 400-fold the desired final maximum test concentration and stored frozen prior to use. At the time of drug addition, an aliquot of frozen concentrate is thawed and diluted to twice the desired final maximum test concentration with complete medium containing 50 µg/ml gentamicin. An additional four, 10-fold or M log serial dilutions are made to provide a total of five drug concentrations plus control. Aliquots of 100 μl of these different drug dilutions are added to the appropriate microtiter wells already containing 100 μl of medium, resulting in the required final drug concentrations. Following drug addition, the plates are incubated for an additional 48 h at 37° C., 5% CO2, 95% air, and 100% relative humidity. For adherent cells, the assay is terminated by the addition of cold TCA. Cells are fixed in situ by the gentle addition of 50 μl of cold 50% (w/v) TCA (final concentration, 10% TCA) and incubated for 60 minutes at 4° C. The supernatant is discarded, and the plates are washed five times with tap water and air dried. Sulforhodamine B (SRB) solution (100 l) at 0.4% (w/v) in 1% acetic acid is added to each well, and plates are incubated for 10 minutes at room temperature. After staining, unbound dye is removed by washing five times with 1% acetic acid and the plates are air dried. Bound stain is subsequently solubilized with 10 mM trizma base, and the absorbance is read on an automated plate reader at a wavelength of 515 nm. For suspension cells, the methodology is the same except that the assay is terminated by fixing settled cells at the bottom of the wells by gently adding 50 μl of 80% TCA (final concentration, 16% TCA).

EKVX = assay: NCI-60 screen (SRB); details: Homo sapiens, Non-Small Cell Lung Cancer
Method: as §1

PC-3 = assay: NCI-60 screen (SRB); details: Homo sapiens; PC-3, Prostate Cancer
Method: as §1

HOP-62 = assay: NCI-60 screen (SRB); details: Homo sapiens; HOP-62, Non-Small Cell Lung Cancer
Method: as §1

HCT-15 = assay: NCI-60 screen (SRB); details: Homo sapiens; HCT-15, Colon Cancer
Method: as §1

ACHN = assay: NCI-60 screen (SRB); details: Homo sapiens, Renal Cancer
Method: as §1

A498 = assay: NCI-60 screen (SRB); details: Homo sapiens; A498, Renal Cancer
Method: as §1

HT29 = assay: NCI-60 screen (SRB); details: Homo sapiens, HT-29; HT29, Colon Cancer
Method: as §1

RXF 393 = assay: NCI-60 screen (SRB); details: Homo sapiens; RXF 393, Renal Cancer
Method: as §1

NCI-H460 = assay: NCI-60 screen (SRB); details: Homo sapiens; NCI-H460, Non-Small Cell Lung Cancer
Method: as §1

SF-268 = assay: NCI-60 screen (SRB); details: Homo sapiens; SF-268, CNS Cancer
Method: as §1

HOP-92 = assay: NCI-60 screen (SRB); details: Homo sapiens; HOP-92, Non-Small Cell Lung Cancer
Method: as §1

KM12 = assay: NCI-60 screen (SRB); details: Homo sapiens; KM12, Colon Cancer
Method: as §1

HL-60(TB) = assay: NCI-60 screen (SRB); details: Homo sapiens, Leukemia
Method: as §1

TK-10 = assay: NCI-60 screen (SRB); details: Homo sapiens; TK-10, Renal Cancer
Method: as §1

NCI-H522 = assay: NCI-60 screen (SRB); details: Homo sapiens; NCI-H522, Non-Small Cell Lung Cancer
Method: as §1

MOLT-4 = assay: NCI-60 screen (SRB); details: Homo sapiens; MOLT-4, Leukemia
Method: as §1

K-562 = assay: NCI-60 screen (SRB); details: Homo sapiens, K562; K-562, Leukemia
Method: as §1

SK-OV-3 = assay: NCI-60 screen (SRB); details: Homo sapiens; SK-OV-3, Ovarian Cancer
Method: as §1

OVCAR-8 = assay: NCI-60 screen (SRB); details: Homo sapiens; OVCAR-8, Ovarian Cancer
Method: as §1

DU-145 = assay: NCI-60 screen (SRB); details: Homo sapiens; DU-145, Prostate Cancer
Method: as §1

NCI-H322M = assay: NCI-60 screen (SRB); details: Homo sapiens, Non-Small Cell Lung Cancer
Method: as §1

OVCAR-3 = assay: NCI-60 screen (SRB); details: Homo sapiens; OVCAR-3, Ovarian Cancer
Method: as §1

A549/ATCC = assay: NCI-60 screen (SRB); details: Homo sapiens, Non-Small Cell Lung Cancer
Method: as §1

CAKI-1 = assay: NCI-60 screen (SRB); details: Homo sapiens; CAKI-1, Renal Cancer
Method: as §1

UACC-62 = assay: NCI-60 screen (SRB); details: Homo sapiens; UACC-62, Melanoma
Method: as §1

SF-295 = assay: NCI-60 screen (SRB); details: Homo sapiens; SF-295, CNS Cancer
Method: as §1

IGROV1 = assay: NCI-60 screen (SRB); details: Homo sapiens, IGROV-1; IGROV1, Ovarian Cancer
Method: as §1

Structure (SMILES) | GI50 [1] [nM] | GI50 (BT-549) [nM] | GI50 (EKVX) [nM] | GI50 (PC-3) [µM] | GI50 (HOP-62) [nM] | GI50 (HCT-15) [nM] | GI50 (ACHN) [nM] | GI50 (A498) [µM] | GI50 (HT29) [nM] | GI50 (RXF 393) [nM] | GI50 (NCI-H460) [nM] | GI50 (SF-268) [µM] | GI50 (HOP-92) [nM] | GI50 (KM12) [nM] | GI50 (HL-60(TB)) [nM] | GI50 (TK-10) [nM] | GI50 (NCI-H522) [nM] | GI50 (MOLT-4) [nM] | GI50 (K-562) [nM] | GI50 (SK-OV-3) [nM] | other results
COc1cc2nccc(Oc3ccc(NC(=O)C4(NC(=O)c5ccc(F)cc5)CC4)cc3F)c2cc1OC [Cbo-02, N-(1-((4-((6,7-diMethoxyquinolin-4-yl)oxy)-3-fluorophenyl)carbamoyl)cyclopropyl)-4-fluorobenzamide] | 2560 | 1430 | 1030 | 3.94 | 1820 | 2980 | 2140 | 3.28 | 1820 | 2050 | 2750 | 4.17 | 1260 | 2000 | 2200 | 1830 | 2070 | 5040 | 3050 | 2270 | GI50 (OVCAR-8): 3.03 µM; GI50 (DU-145): 3360 nM; GI50 (NCI-H322M): 3940 nM; GI50 (OVCAR-3): 2400 nM; GI50 (A549/ATCC): 3270 nM; GI50 (CAKI-1): 1540 nM; GI50 (UACC-62): 1840 nM; GI50 (SF-295): 2310 nM; GI50 (IGROV1): 4480 nM
COc1cc2nccc(Oc3ccc(NC(=O)C4(NC(=O)c5ccc(F)cc5)CC4)cc3F)c2cc1Oc1ccc(N)cc1F [Cbo-10] | 1570 | 2410 | 488 | > 100 | 3480 | 2410 | 683 | > 100 | 413 | > 100000 | 1300 | > 100 | 141 | 130 | 521 | 455 | 450 | 777 | 1740 | 302 | GI50 (OVCAR-8): > 100 µM; GI50 (DU-145): 1700 nM; GI50 (NCI-H322M): 518 nM; GI50 (OVCAR-3): > 100000 nM; GI50 (A549/ATCC): 483 nM; GI50 (CAKI-1): 276 nM; GI50 (UACC-62): 915 nM; GI50 (SF-295): 304 nM; GI50 (IGROV1): 714 nM
COc1cc2nccc(Oc3ccc(NC(=O)C4(C(=O)Nc5ccc(F)cc5)CC4)cc3F)c2cc1Oc1ccc(N)cc1F [Cbo-23] | 730 | 2270 | 389 | 1.6 | 1200 | 315 | 292 | 0.459 | 2150 | 103 | 457 | 1.35 | < 10 | < 10 | 596 | 224 | 330 | 1230 | 130 | 464 | GI50 (OVCAR-8): 2.06 µM; GI50 (DU-145): 429 nM; GI50 (NCI-H322M): 444 nM; GI50 (OVCAR-3): 829 nM; GI50 (A549/ATCC): 325 nM; GI50 (CAKI-1): 192 nM; GI50 (UACC-62): 112 nM; GI50 (SF-295): 66.9 nM; GI50 (IGROV1): 264 nM
